Earlier results in patent US20140147381A1, “89ZR COMPOUNDS, TO INCLUDE SOMATOSTATIN, APPARATUS AND PRODUCTS COMPRISING SUCH COMPOUNDS, METHODS OF MAKING SAME, AND METHODS OF USING SAME FOR RADIO IMAGING AND/OR TREATMENT” (priority 2012, published 2014).

Legend:
[1] = in vitro
[2] = small-animal PET
carcinoid tumors = settings: carcinoid patients

[^89Zr]-DFO
stable with respect to ligand dissociation in human serum [1]: > 7 days
excreted rapidly via the kidneys within [2]: < 20 min

[Cl][89Zr]([Cl])([Cl])[Cl] [[^89Zr]-chloride]
site of accumulation ([2]; free 89Zr(IV) ions): accumulate in the liver

Interferon
biochemical response rate (carcinoid tumors): 40%
tumor response rate (carcinoid tumors): 12%
